For data set [1], the system named is B-NHL cell lines. Description: Treatment of B-NHL cell lines with alkoxyamines (cell killing). Format: cell-based. The following applies: for killing of a B-NHL cell line (cytotoxicity): comparison of alkoxyamines AA3 through AA7, FIG. 17.
Data set [2] relates to HeLa cells. Description: Killing of HeLa cells by MMS combined with MX or AA3 (trypan blue exclusion). Format: cell-based, human. How it is done: Methyl methanesulfonate (MMS, Sigma-Aldrich) was diluted in phosphate buffered saline. MX or AA3 was dissolved in sterile water, and the pH was adjusted to 7 using NaOH solution. The solutions of all the chemicals were freshly prepared for each cytotoxicity experiment. HeLa cells were seeded in 48-well tissue culture plates at 3×10^4 to 6×10^4 cell/mL and grown overnight in DMEM with 10% fetal bovine serum (HyClone). Cells were treated with MMS or as a combination of MMS with MX or AA3 at indicated concentrations and harvested after 24 h. The viability of the cells was assessed via trypan blue (HyClone) exclusion assay performed using TC20 Automated Cell Counter (Bio-Rad Laboratories).

The subject of data set [3] is B-NHL cell lines. Description: Treatment of B-NHL cell lines with alkoxyamines (cell killing). The following applies: for effect on cell growth / cell death: B-NHL cells; for cell death: even at 10 mM. Format: cell-based. As for the experimental part: A 24 hr treatment with 1 mM AA3 killed greater than 40% cells in each culture and at 10 mM concentration, >70% cells were killed (FIG. 11). […] Therefore, AA3 cytocidal to B-NHL cells while MX and ARP are only cytostatic.

For data set [4], the system named is APE-1. The data set is described as follows: AP endonuclease activity assay. The following applies: for protection of AP sites against cleavage by APE-1: alkoxyamine reaction at pH 5. Format: biochemical, mammalian. How it is done:
The cleavage activity of AP endonuclease APE-1 (1 unit, New England Biolabs) was assayed using a 6-FAM labeled oligomer (4 pmol) containing a single uracil. The uracil was excised using UDG to create an AP site and the AP site was labeled with an alkoxyamine as described above. The APE-1 reaction was per-formed in the reaction buffer (50 mM potassium acetate, 20 mM Tris-acetate, 10 mM magnesium acetate, 1 mM DTT, pH 7.9) at 37° C. for 1 h. DNA products were stabilized by incubation with NaBH4 and analyzed by gel electrophoresis as described above.

Data set [5] deals with AP sites in DNA. The data set is described as follows: AP site labeling reaction on synthetic oligomer (gel shift, click reaction). Format: biochemical. The following applies: for product formation: pH 7. As for the experimental part:
A 6-carboxyfluorescein-(6-FAM-) labeled oligonucleotide U-17-mer (5-6-FAM-ATTATTAUCCATTTATT-3′, […]) was used for the AP site labeling reaction. The oligomer (4 pmol) was incubated with E. coli uracil DNA glycosylase (UDG, 1 unit, New England Labs) at 37° C. for 30 min in reaction buffer containing 20 mM Tris-HCl (pH 8.0), 1 mM DTT and 1 mM EDTA to create AP site containing DNA. The alkoxyamine [methoxyamine, MX (Sigma-Aldrich); aldehyde reactive probe, ARP (Dojindo Laboratories) or AA3] was added into the oligomer solution at indicated concentrations, and incubated at 37° C. for another 30 min. In some experiments, the pH of the solution was adjusted with HCl or NaOH solution following removal of uracil and the pH was confirmed using pH paper. Following the reaction of alkoxyamine, unlabeled AP sites were reduced by the addition of NaBH4 (Sigma-Aldrich) to 100 mM and further incubation for 5 min. If this step was omitted, we observed significant degradation of the DNA. The reactions were stopped by the addition of formamide, loading dye and heating to 95° C. for5 min. The DNAs were electrophoresed in 20% polyacrylamide gels containing 7 M urea and scanned using a Typhoon 9210 phosphorimager (GE Healthcare). Product bands in images were quantified using ImageQuant software. In experiments involving competition between alkoxyamines, AP site containing DNA was reacted with the first alkoxyamine at 37° C. for 30 min. This was followed by the addition of the second alkoxyamine and incubation for an additional 30 min. The reactions were stopped and the products were analyzed as described above.
Biotin azide or Cy5 azide (Lumiprobe) was added to a solution of AA3-linked 17-mer to 0.5 mM followed by the addition of a freshly prepared solution of CuBr/TBTA (1:3 in DMSO/t-BuOH 3:1, 0.5 mM, Sigma-Aldrich). The mixture was shaken at 45° C. for 1 h. The DNAs were electrophoresed and analyzed as described above.
For orientation: In EMSA bound probe runs differently from free probe, usually more slowly.

On to `C=CCON` [AA7, O-allylhydroxylamine], for which the “killing of a B-NHL cell line (cytotoxicity)” value in data set [1] was “cytotoxic”.

On to `CCCON` [AA4, O-(n-propyl)hydroxylamine], for which, in data set [1] (even at 10 mM, FIG. 17), the “killing of a B-NHL cell line” value is “did not significantly kill the cells”.

For `CON` [MX, methoxyamine], the “enhancement of killing by MMS” value in data set [2] (10 mM with MMS, six independent cultures) is “did enhance killing by MMS”. In data set [3], the “cytocidal or cytostatic to B-NHL cells” value is “cytostatic”, the “effect on cell growth” value is on record as “temporary pause in cell growth” and the cell death result is given as “did not result in cell death”. The “protection of AP sites against cleavage by APE-1” value in data set [4] was ~100%. In addition, the “protection of AP sites against APE-1” value in data set [4] (alkoxyamine reaction at pH 7) is on record as “protected an overwhelming majority of AP sites”.

Regarding `NOCCC(=O)NNC(=O)CCCC[C@@H]1SC[C@@H]2NC(=O)N[C@@H]21` [ARP, N′-(3-(aminooxy)propanoyl)-5-((3aS,4S,6aR)-2-oxohexahydro-H-thieno[3,4-d]imidazol-4-yl)pentanehydrazide], in data set [3], the “cytocidal or cytostatic to B-NHL cells” value is on record as “cytostatic”, the “effect on cell growth” value is on record as “temporary pause in cell growth” and the cell death entry is “did not result in cell death”. Further, in data set [4] (AP sites reacted with alkoxyamine at pH 7), the “DNA cleaved by APE-1” value is reported as “about 90%”. For the same molecule, in data set [4], the “protection of AP sites against cleavage by APE-1” value stood at 74%. The “substrate converted to product” value in data set [5] (0.2 μM oligomer, 5 mM ARP, pH 7 or 8) is recorded as < 20%. Moreover, the product formation in data set [5] (5 mM) is recorded as 13%. In addition, the product formation in data set [5] (10 mM) was found to be 20%.

With `COS(C)(=O)=O` [MMS, Methyl methanesulfonate], the loss of viability result in data set [2] (MMS alone, 50 µM, after one day) is reported as “very little loss of viability”.

As to `C#CCCON` [AA5, O-(but-3-yn-1-yl)hydroxylamine], the “effectiveness in killing relative to AA3” value in data set [1] (a B-NHL cell line) is reported as “somewhat less effective”. For the same molecule, the “killing of a B-NHL cell line (cytotoxicity)” value in data set [1] is recorded as “killed these cells”.

Values taken from patent US10905658B2, “Methods and compositions for detecting hematopoietic and lymphoid tissue cancer cells” (WAYNE STATE UNIVERSITY, priority 2016, dated 2021).
